Results as given in PubChem BioAssay (NCI).
“And” between values parts separate entries of the source, which are not always exact repeats. Equal values may be shown once.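 Cultured in 96-well plates, cells were exposed to test compound for 48 hours across five concentrations. At the GI50, growth is halved. TGI: concentration producing complete growth inhibition.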

Tests used:
Assay in all cases: NCI tumour cell line growth inhibition, 48 h
M14 melanoma = system: M14 melanoma
OVCAR-3 ovarian = system: OVCAR-3 ovarian
K-562 leukemia = system: K-562 leukemia
SNB-75 CNS = system: SNB-75 CNS
A549 NSCLC = system: A549 NSCLC
UACC-257 melanoma = system: UACC-257 melanoma
SR leukemia = system: SR leukemia
RXF 393 renal = system: RXF 393 renal
NCI-H522 lung = system: NCI-H522 lung
RPMI-8226 leukemia = system: RPMI-8226 leukemia

| SMILES | GI50 (M14 melanoma) | TGI (M14 melanoma) | GI50 (OVCAR-3 ovarian) | TGI (OVCAR-3 ovarian) | GI50 (K-562 leukemia) | TGI (K-562 leukemia) | GI50 (SNB-75 CNS) | TGI (SNB-75 CNS) | GI50 (A549 NSCLC) | TGI (A549 NSCLC) | GI50 (UACC-257 melanoma) | TGI (UACC-257 melanoma) | GI50 (SR leukemia) | TGI (SR leukemia) | GI50 (RXF 393 renal) | TGI (RXF 393 renal) | GI50 (NCI-H522 lung) | TGI (NCI-H522 lung) | GI50 (RPMI-8226 leukemia) | TGI (RPMI-8226 leukemia) |
| --- | --- | --- | --- | --- | --- | --- | --- | --- | --- | --- | --- | --- | --- | --- | --- | --- | --- | --- | --- | --- |
| COc1ccc(C(=O)c2cc(OC)c(OC)c(OC)c2)cc1OC(C)=O | < 0.0143 µM | > 100 µM | 0.0292 µM | 0.0848 µM | < 0.01 µM | > 100 µM | < 0.0145 µM | > 100 µM | 0.115 µM | > 100 µM | > 100 µM | > 100 µM | < 0.01 µM | > 75.2 µM | 0.0391 µM | > 100 µM | 0.017 µM | > 100 µM | 0.0324 µM | 26.8 µM |
| Cn1nc(C(F)(F)F)c(-c2ccc(Cl)c(C(F)(F)F)c2)c1-c1ccc(OCc2ccc(Cl)cc2)cc1O | 1.81 µM | 6.85 µM | 1.66 µM | 5.8 µM | 1.84 µM | 7.47 µM | 1.45 µM | 7.54 µM | 1.66 µM | 6.16 µM | 1.37 µM | 4.09 µM | 2.06 µM | 7.34 µM | 1.41 µM | 4.32 µM | 1.47 µM | 5.64 µM | 1.98 µM | 7.29 µM |
| O=C1c2ccccc2C(=O)c2c(NCCCNCCO)ccc(NCCCNCCO)c21 |  | 25.5 µM |  | 27.3 µM |  | 13.9 µM |  | 23.3 µM |  | 47.3 µM |  | 46.8 µM |  | 20.8 µM |  | 18.2 µM |  | 15.5 µM |  | 53.1 µM |
| CCSc1oc(-c2ccccc2)nc1[P+](c1ccccc1)(c1ccccc1)c1ccccc1 | 0.334 µM | 1.84 µM | 0.268 µM | 1.7 µM | 0.152 µM | 3.45 µM | 0.177 µM | 0.727 µM | 0.301 µM | 4.71 µM | 0.309 µM | 1.28 µM | 0.377 µM | 24.2 µM | 0.331 µM | 1.93 µM | 0.261 µM | 1.09 µM | 0.135 µM | 0.52 µM |
| CCN(CC)CCN1C(=O)c2c(c(C)c3c(oc4cc(O)ccc43)c2C)C1=O | 1.81 µM | 3.63 µM | 1.78 µM | 3.34 µM | 2.3 µM | > 100 µM | 1.44 µM | 2.8 µM | 2.05 µM | 4.68 µM | 1.95 µM | 4.15 µM | 1.89 µM | > 100 µM | 1.33 µM | 2.69 µM | 2.11 µM | 4.71 µM | 1.77 µM | 4.76 µM |
| Cn1c2c([N+](=O)[O-])[se]nc2c(=O)n1-c1ccc([N+](=O)[O-])cc1 |  | 2.62 µM |  | 3.12 µM |  | > 100 µM |  | 7.63 µM |  | 20.6 µM |  | 4.17 µM |  | 0.271 µM |  | 2.21 µM |  | 2.94 µM |  | 5.51 µM |
| C/C1=C\[C@H](C)C[C@H](C)OC(=O)C[C@H](c2ccc(O)cc2)NC(=O)[C@@H](Cc2c(Br)[nH]c3ccccc23)N(C)C(=O)[C@H](C)NC(=O)[C@@H](C)C1 | 0.0456 µM |  | 0.0393 µM | 0.323 µM and 0.255 µM | 0.229 µM | > 49.8 µM | 0.0168 µM | 0.175 µM and 0.0335 µM | 0.0318 µM |  | 0.0747 µM | 0.37 µM and 1.15 µM | 0.587 µM | 4.21 µM | 0.228 µM | 0.464 µM and 0.615 µM | 0.0344 µM | 0.908 µM and 1.13 µM | < 0.0176 µM |  |
| O=C(c1cc(O)ccc1O)c1ccccc1C(Cl)(Cl)Cl |  | > 100 µM |  | > 100 µM |  | > 100 µM |  | > 100 µM |  | > 100 µM |  | > 100 µM |  | > 100 µM |  | > 100 µM |  | > 100 µM |  | > 100 µM |
| Nc1ncnc2c1c(C(F)(F)F)cn2[C@@H]1O[C@H](CO)[C@@H](O)[C@H]1O | 0.0419 µM | 1.91 µM | 0.398 µM | > 100 µM | 0.304 µM | 1.41 µM | 0.708 µM | 3.62 µM | 0.324 µM | > 56.1 µM | 0.306 µM |  | 0.341 µM |  | 0.237 µM | 1.67 µM | 0.319 µM | 3.15 µM | 0.151 µM | 1.82 µM |
| Cc1ccc(Cl)cc1Nc1nc(C(F)(F)F)ccc1C(=O)Nc1cccc(C(F)(F)F)c1 | 2.99 µM | 10.3 µM | 4.18 µM | 20.1 µM | 3.59 µM | > 100 µM | 3.11 µM | 12.3 µM | 2.93 µM | 11.7 µM | 2.93 µM | 8.35 µM | 3.41 µM | 30.3 µM | 2.7 µM | 7.92 µM | 1.78 µM | 6.37 µM | 2.34 µM | 12.6 µM |
| CCCS(=O)(=O)Nc1ccc(F)c(C(=O)c2c[nH]c3ncc(-c4ccc(Cl)cc4)cc23)c1F | 0.0403 µM and 0.0413 µM | 1.34 µM and 2.21 µM | 7.65 µM and > 8.66 µM | 25.5 µM and > 10 µM | 4.32 µM and > 8.72 µM | 19.6 µM and > 10 µM | 2.48 µM and 2.38 µM | 16.6 µM and > 10 µM | 3.46 µM and 6.38 µM | 25 µM and > 10 µM | 0.0485 µM and 0.0643 µM | 3.71 µM and 0.604 µM | 2.1 µM and 2.92 µM | 13.9 µM and > 10 µM | 1.89 µM and 3.53 µM | 6.58 µM and > 10 µM | 7.14 µM and > 7.96 µM | 22.3 µM and > 10 µM | 3.9 µM and 6.36 µM | 37.4 µM and > 10 µM |
| CC[C@@]1(O)C(=O)NCc2c1cc1n(c2=O)Cc2cc3ccccc3nc2-1 | 1.49 µM | 15.1 µM | 34.4 µM | > 100 µM | 4.4 µM | > 100 µM | 4.22 µM | > 28.5 µM | 2.37 µM | > 100 µM | 7.95 µM | > 59.1 µM | 0.123 µM | 0.503 µM | 6.11 µM | > 80.6 µM | > 22.6 µM | > 100 µM | 2.15 µM | > 43.3 µM |
| COc1ccc(-c2oc(=O)ccc2C#Cc2cc(OC)c(OC)c(OC)c2)cc1O | 26.9 µM | > 100 µM | 20.9 µM | 70.6 µM | 13.8 µM | > 100 µM | 20.8 µM | 69.9 µM | 39.5 µM | > 100 µM | 36.4 µM | > 100 µM | 2.75 µM | 33.5 µM | 10.9 µM | 31.9 µM | 8.7 µM | 37.5 µM | 10.9 µM | 35.1 µM |
| CN1/C(=C\C(I)C(I)C2=[N+](C)c3ccccc3C2(C)C)C(C)(C)c2ccccc21 (stereo not given) | 0.367 µM | 13.2 µM | 0.304 µM | 13.8 µM | 0.202 µM | 14.6 µM | 0.416 µM | 9.77 µM | 0.283 µM | 18.3 µM | 0.175 µM | 2.24 µM | 0.151 µM | 13.8 µM | 0.497 µM | 3.6 µM | 0.257 µM | 10.2 µM | 0.057 µM | 2.67 µM |
| Cc1ccc2nc3c(C)c(Cl)c(=O)cc-3sc2c1 |  | 36.4 µM |  | > 100 µM |  | 19 µM |  | 56.3 µM |  | 98.2 µM |  | 53.8 µM |  | > 31.6 µM |  | 73.7 µM |  | > 56.1 µM |  | > 52.3 µM |
| O=C1NC(=O)/C(=C/C=C/c2ccccc2)S1 | 2.1 µM | > 20.6 µM | 2.88 µM | 33.1 µM | 3.27 µM | > 100 µM | 5.25 µM | 40.3 µM | 11.1 µM | > 100 µM | 5.43 µM | > 100 µM | 0.597 µM | > 86.5 µM | 4.95 µM | 27.8 µM | 7.82 µM | 52.7 µM | 3.67 µM | > 96.5 µM |
| C/C(=C\c1ccc(Cl)cc1)C(C)(C)C(=O)O |  | > 100 µM |  | > 100 µM |  | > 100 µM |  | > 100 µM |  | > 100 µM |  | > 100 µM |  | > 100 µM |  | > 100 µM |  | > 100 µM |  | > 100 µM |
| COC(=O)C(=O)C1(CCC(C)=O)c2ccccc2-c2ccccc21 |  | > 100 µM |  | > 100 µM |  | > 100 µM |  | > 100 µM |  | > 100 µM |  | > 100 µM |  | > 100 µM |  | > 100 µM |  | > 100 µM |  | > 100 µM |
| Nc1ccc(-c2nc3ccc4[nH]ncc4c3c3c2CCCC3)cc1F | 0.686 µM | 6.92 µM | 1.89 µM | 18.5 µM | 1.98 µM | 22.8 µM | 1.35 µM | 3.42 µM | 1.04 µM | 9.54 µM | 1.92 µM | 10.7 µM | 1.12 µM | 9.1 µM | 0.36 µM | 2 µM | 0.989 µM | 6.93 µM | 0.842 µM | 7.37 µM |
| Cc1ccc2c(c1)C(=O)c1c-2n(CCCN)c(=O)c2cc([N+](=O)[O-])ccc12 | 0.452 µM | 1.16 µM | 0.521 µM | 1.32 µM | 0.11 µM | 0.721 µM | 0.385 µM | 1.07 µM | 0.2 µM | 0.887 µM | 1.52 µM | 4.97 µM | 0.0394 µM | 0.201 µM | 0.627 µM | 1.31 µM | 0.2 µM | 0.985 µM | 0.0199 µM | 0.226 µM |
| N/C(=N\NS(=O)(=O)c1ccccc1)Oc1ccc(Cl)cc1 |  | > 100 µM |  | > 100 µM |  | > 100 µM |  | > 100 µM |  | > 100 µM |  | > 100 µM |  | > 100 µM |  | 58.1 µM |  | > 100 µM |  | > 100 µM |
| CCOC1OCCCC1Br (stereo not given) |  | > 100 µM |  | > 100 µM |  | > 100 µM |  | > 100 µM |  | > 100 µM |  | > 100 µM |  | > 100 µM |  | > 100 µM |  | > 100 µM |  | > 100 µM |
